Values after ≈ are worked out from the molar mass of the structure shown.
How the values were obtained:
[1] = tested on: S. aureus; set-up: method as in PMID 35914415; conditions: reducing cell surface hydrophobicity and membrane permeability; cited from earlier work
[2] = tested on: MDA-MB-231 cells; assay: MTT cytotoxicity assay on breast cancer cells; format: cell-based, human; conditions: for IC50: Homo sapiens, MDA-MB-231 breast cancer cells, MTT, 24 h; for selectivity index (SI): toxicity on RAW264.7 compared to MDA-MB-231 cancer cells
Procedure: (§1) Cytotoxicity and antiproliferative effects of compounds were evaluated against Murine macrophage cells (RAW264.7) and breast adenocarcinoma cancer cells (MDA-MB-231) using the spectrophotometric, 3-(4,5-dimethylthiazol-2-yl)-2,5-diphenyltetrazolium bromide (MTT) assay ([16]). Cells (5 × 10^4 cell/well) were seeded in Dulbecco’s modified eagle’s medium (DMEM; Gibco) in a 96 well plate for 24 h incubation at 37 °C in 5% CO2 and treated with compounds (2.5 - 200 µg/mL) and positive control, Doxorubicin (2.5 - 200 µM). Untreated cells and 5% DMSO treated cells were assayed as negative and solvent control, respectively. After 24 h incubation, 20 µL MTT dye (5 mg/mL) was pipetted in all wells including wells with untreated cells, and incubated for 4 h. The medium was aspirated and 100 µL of DMSO was added to all the wells to dissolve the formazan crystals and the optical density (OD) was measured after an hour at 570 nm using a microplate reader.

[3] = tested on: RAW264.7 cells; assay: MTT cytotoxicity assay on normal macrophage cells; format: cell-based; conditions: Mus musculus, RAW264.7 normal murine macrophage cells, 24 h
Procedure: as §1

[4] = tested on: Escherichia coli, Staphylococcus aureus and Candida albicans; assay: Microplate serial dilution MIC assay, stated across the three strains; format: cell-based; conditions: across the three strains (E. coli, S. aureus, C. albicans)
Procedure: Three microorganisms used in this study, two bacterial strains (Escherichia coli ATCC 25922 - Gram-negative and Staphylococcus aureus ATCC 25923 - Gram-positive) and a fungus (Candida albicans ATCC 10231) were procured from Anatech Instruments (Pty) Ltd, Randburg, Gauteng, South Africa (Anatech, Kwik-stick®). Escherichia coli and S. aureus were cultured in nutrient agar while the fungus (C. albicans ATCC 10231) was cultured on sabouraud dextrose agar (SDA) and incubated for 24 h under aerobic conditions at 37 °C. Pure colonies of microorganisms from the agar were transferred onto nutrient broth and sabouraud dextrose broth (SDB) to obtain an overnight culture. Compounds 1 – 6 were weighed and dissolved in 5% Dimethyl sulfoxide (DMSO) to a final working stock solution of 4 mg/mL. Standard antibiotics Ciprofloxacin and Amphotericin-B were also dissolved in 5% DMSO. The samples were kept at 20 °C in the dark until used. Antimicrobial activity was done using the microplate serial dilution method by Eloff, ([14]). The minimum inhibitory concentration (MIC) was defined as the lowest concentration of the compound capable of inhibiting microbial growth. […] A staining reagent, 50 µL Resazurin sodium salt (0.2 mg/mL) was used as an indicator of microbial growth and the MIC was visually determined ([15]).

[5] = tested on: Candida albicans ATCC 10231; assay: Microplate serial dilution MIC assay (resazurin); format: cell-based; conditions: ATCC10231, C. albicans ATCC 10231, 24 h at 37 °C, tested 7.8-1000 µg/mL
Procedure: (§2) Three microorganisms used in this study, two bacterial strains (Escherichia coli ATCC 25922 - Gram-negative and Staphylococcus aureus ATCC 25923 - Gram-positive) and a fungus (Candida albicans ATCC 10231) were procured from Anatech Instruments (Pty) Ltd, Randburg, Gauteng, South Africa (Anatech, Kwik-stick®). Escherichia coli and S. aureus were cultured in nutrient agar while the fungus (C. albicans ATCC 10231) was cultured on sabouraud dextrose agar (SDA) and incubated for 24 h under aerobic conditions at 37 °C. Pure colonies of microorganisms from the agar were transferred onto nutrient broth and sabouraud dextrose broth (SDB) to obtain an overnight culture. Compounds 1 – 6 were weighed and dissolved in 5% Dimethyl sulfoxide (DMSO) to a final working stock solution of 4 mg/mL. Standard antibiotics Ciprofloxacin and Amphotericin-B were also dissolved in 5% DMSO. The samples were kept at 20 °C in the dark until used. Antimicrobial activity was done using the microplate serial dilution method by Eloff, ([14]). The minimum inhibitory concentration (MIC) was defined as the lowest concentration of the compound capable of inhibiting microbial growth. The microorganisms were adjusted according to 0.5 McFarland standard solution to a final concentration of 1.5 × 10^4 CFU/mL in sterile 0.85% sodium chloride (NaCl) solution. Compounds were tested at the concentration range of 7.8-1000 µg/mL in 96 well plates and incubated with microorganisms for 24 h at 37 °C. Ciprofloxacin and Amphotericin-B were used as positive controls for bacterial and fungal assays, respectively. In addition, sterile distilled 5% DMSO was used as a negative control. A staining reagent, 50 µL Resazurin sodium salt (0.2 mg/mL) was used as an indicator of microbial growth and the MIC was visually determined ([15]).

[6] = tested on: Escherichia coli ATCC 25922; assay: Microplate serial dilution MIC assay (resazurin); format: cell-based; conditions: ATCC25922, E. coli ATCC 25922, 24 h at 37 °C, tested 7.8-1000 µg/mL
Procedure: as §2

[7] = tested on: Staphylococcus aureus ATCC 25923; assay: Microplate serial dilution MIC assay (resazurin); format: cell-based; conditions: ATCC25923, S. aureus ATCC 25923, 24 h at 37 °C, tested 7.8-1000 µg/mL
Procedure: as §2

[8] = tested on: RAW264.7 cells; assay: LPS-induced intracellular ROS production (H2DCF-DA assay); format: cell-based, murine; conditions: RAW264.7, compound 10 µg/mL, LPS 10 µg/mL; for ROS production level: relative to LPS-treated cells
Procedure: Lipopolysaccharide (LPS)-induced reactive oxygen species (ROS) production was probed using an oxidative cell-permeant fluorescent dye 2',7'-dichlorodihydrofluorescein diacetate (H2DCF-DA) ([17]). RAW264.7 cells (5 × 10^4 cells/well) were seeded overnight into a 96 well plate and treated with compounds (10 µg/mL) at concentrations ≤ IC50 values and LPS (10 µg/mL) for 24 h at 37 °C in 5% CO2 rich incubator, then 10 μM H2DCF-DA dye (100 µL) was added for an hour. The fluorescence intensity which correlates to ROS production was measured on a microplate reader at 485 and 535 nm excitation and emission, respectively. Data obtained were subjected to analysis using GraphPad Prism (version 8.2).
Inflammation is a physiological response stimulated by the organism as a way of overcoming pathogenic events employed as a defense mechanism. However, an unregulated inflammatory response can lead to several diseases, including cancer. ROS-inducing approaches rely on the fact that increasing the ROS level over the cytotoxic threshold can result in cellular impairment, damaging DNA, RNA, proteins and lipids in normal cells, even though macrophage cells cannot phagocytize cancerous cells, but release a reasonable amount of pro-inflammatory cytokines that quench cancer cells yet are cytoprotective to normal cells ([6]). In this regard, it was considered that the compounds tested would be able to reduce the production of LPS-induced ROS in normal macrophages. Determination of ROS production in RAW264.7 cells was conducted using the non-toxic IC50 value of 10 µg/mL for all compounds (Table 2). Cells were pre-treated with compounds for 20 h and LPS was added in all treated cells except the untreated control cells. Thereafter H2DCFDA was introduced to the cells. […]
Figure 3 Effects of S. nigrescens compounds 1-6 on LPS-induced ROS production by RAW264.7 cells measured by a micro plate reader (Thermo Scientific Varioskan Flash). […] Experiments were conducted in triplicate and data is expressed as the mean ± SD with p-values calculated against control ^**p < 0.01; ^***p < 0.001

[9] = tested on: LPS-induced ROS; set-up: method as in PMID 18254591, PMID 30302324; conditions: read-out: IC50, inhibition of LPS-induced ROS; cited from earlier work
[10] = tested on: LPS-induced RNS; set-up: method as in PMID 18254591, PMID 30302324; conditions: read-out: IC50, inhibition of LPS-induced RNS; cited from earlier work

For `O=c1cc(-c2ccc(O)cc2)oc2c([C@@H]3O[C@H](CO)[C@@H](O)[C@H](O)[C@H]3O)c(O)cc(O)c12` [Apigenin-8-C-glucoside], the MIC [1] is given as 126 µg/mL (≈ 291 µM).
For `C=C(C=O)C1CCC2(C)CCC3(C)C(CCC4C5(C)CCC(O)C(C)(C)C5CCC43C)C12` (stereo not drawn) [Compound 1, 3β-hydroxy-20(29)-en-lupan-30-al], the IC50 [2] was 26.6 µg/mL (≈ 60.5 µM), the IC50 [3] was 16.9 µg/mL (≈ 38.3 µM) and the MIC [4] was no less than 250 µg/mL.
With `C=C(CO)C1CCC2(C)CCC3(C)C(CCC4C5(C)CCC(O)C(C)(C)C5CCC43C)C12` (stereo not drawn) [Compound 2, 30-hydroxylup-20(29)-en-3β-ol] the IC50 [2] was 11.9 µg/mL (≈ 26.8 µM), the “selectivity index (SI)” value [2] was 1.92 and the IC50 [3] was 22.8 µg/mL (≈ 51.5 µM). The MIC [4] was no less than 250 µg/mL.
Work on `CC1=CC23CCC4C(C)(CO)CCCC4(CO)C2CCC1C3` (stereo not drawn) [Compound 3, ent-kaur-15-en-18,20-diol] yielded an MIC [5] of 62.5 µg/mL (≈ 205 µM), an MIC [6] of 250 µg/mL (≈ 821 µM) and an MIC [7] of 125 µg/mL (≈ 411 µM). The IC50 [2] was 12.6 µg/mL (≈ 41.4 µM), the “selectivity index (SI)” value [2] was 1.46 and the IC50 [3] was 18.5 µg/mL (≈ 60.8 µM).
In the case of `O=c1c(O)c(-c2ccc(O)c(O)c2)oc2c(O)c(O)ccc12` [Compound 4, melanoxetin], the IC50 [2] is reported as 22.2 µg/mL (≈ 73.4 µM), the IC50 [3] is reported as 15.8 µg/mL (≈ 52.3 µM) and the “reduction of ROS” value [8] is reported as “approximately 40%”. For the same molecule, the IC50 [9] was 12.5 µM and the IC50 [10] was 6.9 µM.
`O=c1c(O)c(-c2ccc(O)c(O)c2)oc2cc(O)cc(O)c12` [Compound 5, quercetin] gave an MIC [5] of 31.2 µg/mL (≈ 103 µM), an MIC [6] of 62.5 µg/mL (≈ 207 µM) and an MIC [7] of 31.2 µg/mL (≈ 103 µM). The IC50 [2] was 20.6 µg/mL (≈ 68.2 µM), the “selectivity index (SI)” value [2] was 1.09 and the IC50 [3] was 22.6 µg/mL (≈ 74.8 µM). For the same molecule, the ROS production level [8] was “below 50%”.
Work on `COc1c(-c2ccc(O)c(O)c2)oc2cc(O)cc(O)c2c1=O` [Compound 6, quercetin-3-O-methyl ether] yielded an MIC [5] of 31.2 µg/mL (≈ 98.8 µM), an MIC [6] of 62.5 µg/mL (≈ 198 µM) and an MIC [7] of 31.2 µg/mL (≈ 98.8 µM). For the same molecule, the IC50 [2] was 14 µg/mL (≈ 44.4 µM), the “selectivity index (SI)” value [2] was 2.04 and the IC50 [3] was 28.7 µg/mL (≈ 90.8 µM). The ROS production level [8] was “below 50%”.
With `COc1cccc2c1C(=O)c1c(O)c3c(c(O)c1C2=O)C[C@@](O)(C(=O)CO)C[C@@H]3O[C@H]1C[C@H](N)[C@H](O)[C@H](C)O1` [doxorubicin, reference compound] the IC50 [2] was 9.35 µg/mL (≈ 17.2 µM), the “selectivity index (SI)” value [2] was 1.13 and the IC50 [3] was 10.6 µg/mL (≈ 19.5 µM).

Reference: paper PMC8842601, “Antimicrobial, Cytotoxic and Oxidative Stress Inhibitory Activities of Terpenoids and Flavonols from Senegalia nigrescens (Oliv.) P.J.H. Hurter” (Iranian Journal of Pharmaceutical Research : IJPR, 2021)
